{
  "source": "patent US12083089B2",
  "about": "“Compositions and methods for stimulating ventilatory and/or respiratory drive” (CASE WESTERN RESERVE UNIVERSITY, priority 2015, dated 2024)",
  "key": {"[1]": {"test_system": "conscious rats", "assay": "Morphine-induced analgesia (paw withdrawal latency assay), Example 1", "format": "in vivo, rat", "conditions": "500 μmol/kg i.v.; 10 mg/kg of morphine; FIG. 13"}, "[2]": {"test_system": "freely moving rats", "assay": "Tail-flick latency (TFL) test", "format": "in vivo, rat"}, "[3]": {"test_system": "freely moving adult male Sprague-Dawley rats", "assay": "Whole-body plethysmography of ventilatory parameters in morphine-treated rats", "procedure": "Permissions, rats, surgical procedures and blinding of protocols. All studies were carried out in accordance with the NIH Guide for the Care and Use of Laboratory Animals (NIH Publication No. […]) revised in 1996. The protocols were approved by the Animal Care and Use Committees of the University of Virginia, Case Western Reserve University and Loma Linda University. In addition, all studies were carried out in compliance with the ARRIVE (Animal Research: Reporting of In Vivo Experiments) guidelines. Adult male Sprague-Dawley rats (Harlan, Madison, WI, USA) were implanted with jugular vein catheters under 2% isoflurane anesthesia and some rats received femoral arterial catheters. The rats were allowed at least four days to recover from surgery before use. All arterial catheters were flushed daily with heparin solution (50 units of heparin in phosphate-buffered saline at 0.1 M, pH 7.4). All catheters were flushed with phosphate-buffered saline (0.1 M, pH 7.4) approximately four hours before commencement of the experiments. All studies were performed in a quiet laboratory with relative humidity of 49±2% and room temperature of 21.4±0.2° C. […] Also, please note that the antinociception and ventilatory studies were done in separate groups of rats so as to not complicate the respiratory measurements. The recording (plethysmography, antinociception) sessions and the arterial blood gas assays were done by a particular investigator who administered the opioid, vehicle or test drug such as d-cystine diME. The syringes containing the vehicle or test drug were made up by another investigator, such that the investigator running the actual experiment was blinded to the treatment protocol. In every case, the data files resulting from a particular study were first collated and analyzed by another investigator in the group.\nVentilatory parameters were recorded in freely moving rats by whole body plethysmography (PLY3223; Data Sciences International, St. Paul, MN). The rats were placed in individual chambers and given 60 min to acclimatize to allow true resting ventilatory parameters to be established. […] The rats received another injection of vehicle or 1-NACme (500 μmol/kg, IV) 15 min later and ventilatory parameters were recorded for a further 60 min.\nThe provided software (Fine Pointe, BUXCO) constantly corrected digitized values for changes in chamber temperature and humidity. Pressure changes associated with the respiratory waveforms were then converted to volumes (i.e., TV, PIF and PEF) using the algorithm of Epstein and colleagues. Specifically, factoring in chamber temperature and humidity, the cycle analyzers filtered the acquired signals, and BUXCO algorithms (Fine Pointe) generated an array of box flow data that identified a waveform segment as an acceptable breath. From that data vector, the minimum and maximum values were determined. Flows at this point were considered to be “box flow” signals.\nThe recorded data (1 min bins) and derived parameters, Vt/Ti and Response Area (cumulative percent changes from pre-values) were taken for statistical analyses. The pre-drug 1 min bins excluded occasional marked deviations from resting due to movements or scratching by the rats. These exclusions ensured accurate determinations of baseline parameters. The data are presented as mean±SEM. All data unless other-wise stated (see immediately below) were analyzed by one-way or two-way analysis of variance followed by Student's modified t test with Bonferroni corrections for multiple comparisons between means using the error mean square terms from each ANOVA. A value of P<0.05 denoted the initial level of statistical significance that was modified according to the number of comparisons between means."}, "[4]": {"test_system": "freely moving rats", "assay": "Hot-plate (hind-paw withdrawal) latency (HPL), Hargreaves's test, morphine 10 mg/kg", "format": "in vivo, rat"}, "[5]": {"test_system": "rats", "assay": "Hemodynamics (preliminary toxicology)", "format": "in vivo, rat", "conditions": "500 μmol/kg, i.v.", "from_the_text": "FIGS. 11(A-C) illustrate plots showing the effects of test agents (500 μmol/kg, i.v.) on hemodynamic variables. Data are presented mean±SEM (n=8 rats per group)."}, "[6]": {"test_system": "freely moving rats", "assay": "Arterial blood-gas chemistry and A-a gradient in morphine-treated rats", "format": "in vivo, rat"}, "[7]": {"test_system": "adult male rats", "assay": "Hargreaves Hind-paw Latency Test, morphine 1 mg/kg", "format": "in vivo, rat", "conditions": "for effect on the antinociception actions of morphine (Hargreaves): 500 μmol/kg IV with morphine sulfate 1.0 mg/kg IV; for thermal nociception (Hargreaves Testing) when given alone: 500 μmol/kg IV, tested 20 to 30 min post-injection; for Hargreaves hind-paw withdrawal latency: FIG. 26 study"}, "[8]": {"test_system": "adult male rats", "assay": "Von Frey Test, morphine 1 mg/kg", "format": "in vivo, rat", "conditions": "for force needed to initiate hind-paw withdrawal (Von Frey): FIG. 27 study"}, "[9]": {"test_system": "conscious (adult male) C57 black 6 (C57BL6) mice", "assay": "Ventilatory responses in conscious mice", "format": "in vivo, mouse"}, "[10]": {"test_system": "conscious male adult Sprague-Dawley rats", "assay": "Plethysmographic ventilatory responses to test compounds in conscious rats", "format": "in vivo, rat"}, "[11]": {"test_system": "humans", "conditions": "oral NAC three times daily, exposed acutely to isocapnic hypoxia; cited from earlier work"}, "[12]": {"conditions": "500 μmol/kg IV, before morphine"}, "[13]": {"conditions": "drug 500 μmol/kg IV 20 min before morphine 10 mg/kg IV"}, "[14]": {"conditions": "500 μmol/kg IV in morphine (10 mg/kg IV)-treated rats, FIG. 21"}, "[15]": {"conditions": "freely moving rats, morphine 10 mg/kg IV, then d-cystine diEE 500 μmol/kg IV 15 min later"}},
  "note": "“Also recorded” adds a separate entry of the source.",
  "data": [
    {"smiles": "CCOC(=O)[C@H](N)CSSC[C@@H](N)C(=O)OCC", "note": "[D-Cystine diEE, D-Cystine diethylester]", "values": [
      {"measurement": "morphine analgesia", "setting": "[1]", "value": "does not attenuate"},
      {"measurement": "TFL after the drug alone", "setting": "[2]; [12]", "value": "transient increase"},
      {"measurement": "time within which the transient increase in TFL resolved", "setting": "[2]; [12]", "value": "≤ 15", "unit": "min"},
      {"measurement": "antinociceptive effects of morphine (TFL) in drug-pretreated rats", "setting": "[2]; [13]", "value": "enhanced"},
      {"measurement": "initial peak responses: Freq, TV, MV, PIF, PEF, EF50, inspiratory and expiratory drive", "setting": "[3]; [14]", "value": "pronounced increases"},
      {"measurement": "total response: Freq", "setting": "[3]; [14]", "value": "relatively minor increase in Freq"},
      {"measurement": "total response: TV, MV, PIF, PEF, PEF/PIF, EF50, inspiratory and expiratory drives", "setting": "[3]; [14]", "value": "robust sustained increases"},
      {"measurement": "ventilatory depressant effects of morphine incl. tidal volume/inspiratory time (Vt/Ti)", "setting": "[3]; bolus 500 μmol/kg i.v. (D-CYSee 2×500 μmol/kg) after morphine 10 mg/kg i.v., conscious rats, Example 1", "value": "immediate and sustained reversal"},
      {"measurement": "duration of the brief increase in Freq", "setting": "[3]; d-cystine diEE 500 μmol/kg IV, 15 min after morphine 10 mg/kg IV", "value": "about 5 min"},
      {"measurement": "changes in EF50", "setting": "[3]; [15]", "value": "further prompt and sustained increase"},
      {"measurement": "changes in PEF/PIF", "setting": "[3]; [15]", "value": "decrease in PEF/PIF immediately upon injection"},
      {"measurement": "changes in expiratory drive (TV/Te)", "setting": "[3]; [15]", "value": "substantial and sustained increase"},
      {"measurement": "changes in expiratory time (Te)", "setting": "[3]; [15]", "value": "without greatly affecting Te"},
      {"measurement": "changes in frequency of breathing (Freq)", "setting": "[3]; [15]", "value": "brief increase in Freq of about 5 min in duration that was followed by a gradual and sustained elevation"},
      {"measurement": "changes in inspiratory drive (TV/Ti)", "setting": "[3]; [15]", "value": "noticeable but partial recovery"},
      {"measurement": "changes in inspiratory time (Ti)", "setting": "[3]; [15]", "value": "brief decrease in Ti"},
      {"measurement": "changes in minute ventilation (MV)", "setting": "[3]; [15]", "value": "prompt and long-lasting reversal"},
      {"measurement": "changes in peak expiratory flow (PEF)", "setting": "[3]; [15]", "value": "marked increase in PEF to levels well above pre-morphine levels"},
      {"measurement": "changes in peak inspiratory flow (PIF)", "setting": "[3]; [15]", "value": "prompt and relatively sustained reversal"},
      {"measurement": "changes in the ratio of Te/Ti", "setting": "[3]; [15]", "value": "similarly"},
      {"measurement": "HPL after the drug alone", "setting": "[4]; [12]", "value": "transient increase"},
      {"measurement": "time within which the transient increase in HPL resolved", "setting": "[4]; [12]", "value": "≤ 15", "unit": "min"},
      {"measurement": "antinociceptive effects of morphine (HPL) in drug-pretreated rats", "setting": "[4]; [13]", "value": "enhanced"}
    ]},
    {"smiles": "COC(=O)[C@H](N)CSSC[C@@H](N)C(=O)OC", "note": "[D-Cystine diME, D-Cystine dimethylester]", "values": [
      {"measurement": "hemodynamic responses (FIG. 11)", "setting": "[5]", "value": "minimal responses; also recorded: did not elicit significant responses"},
      {"measurement": "deleterious actions of morphine on ABG chemistry and A-a gradient", "setting": "[6]; bolus 500 μmol/kg i.v. after morphine 10 mg/kg i.v., Example 1", "value": "reversed"},
      {"measurement": "changes in ABG chemistry (pH, pCO2, pO2 and sO2)", "setting": "[6]; freely moving rats, morphine 10 mg/kg IV, then drug 500 μmol/kg IV 15 min later, FIG. 18", "value": "reversed immediately"},
      {"measurement": "changes in A-a gradient", "setting": "[6]; freely moving rats, morphine 10 mg/kg IV, then drug 500 μmol/kg IV 15 min later, FIG. 19", "value": "reversed immediately"},
      {"measurement": "effect on the antinociception actions of morphine (Hargreaves)", "setting": "[7]; listed as D-cystine diME", "value": "not different from each other"},
      {"measurement": "effect on the antinociception actions of morphine (Hargreaves)", "setting": "[7]; listed as d-cystine diME", "value": "neither thiolester affected"},
      {"measurement": "thermal nociception (Hargreaves Testing) when given alone", "setting": "[7]", "value": "not a significant difference"},
      {"measurement": "thermal nociception (Hargreaves Testing) when given alone", "setting": "[7]; listed as d-cystine diME", "value": "neither d-cystine diME nor L-cystine diME affected"},
      {"measurement": "Hargreaves hind-paw withdrawal latency", "setting": "[7]; Morphine+D-Cystine diME", "value": "16.9 ± 1.0", "unit": "s"},
      {"measurement": "Hargreaves hind-paw withdrawal latency", "setting": "[7]; given alone, D-cystine diME 500 μmol/kg IV, morphine sulfate 1 mg/kg IV", "value": "12.9 ± 1.0", "unit": "s"},
      {"measurement": "effect on the antinociception actions of morphine (Von Frey)", "setting": "[8]; 500 μmol/kg IV with morphine sulfate 1.0 mg/kg IV, listed as d-cystine diME", "value": "neither thiolester affected"},
      {"measurement": "mechanical allodynia (Von Frey Testing) when given alone", "setting": "[8]; 500 μmol/kg IV, tested 20 to 30 min post-injection, listed as d-cystine diME", "value": "neither d-cystine diME nor L-cystine diME affected"},
      {"measurement": "force needed to initiate hind-paw withdrawal (Von Frey)", "setting": "[8]; Morphine+D-cystine diME", "value": "176±5", "unit": "grams"},
      {"measurement": "force needed to initiate hind-paw withdrawal (Von Frey)", "setting": "[8]; given alone, D-cystine diME 500 μmol/kg IV, morphine 1 mg/kg IV", "value": "144±8", "unit": "grams"},
      {"measurement": "duration of increases in frequency of breathing, tidal volume and minute ventilation", "setting": "[9]", "value": "approximately 20 min"},
      {"measurement": "frequency of breathing, tidal volume and minute ventilation (response)", "setting": "[9]; 250 mol/kg dose", "value": "robust increases"},
      {"measurement": "duration of increases in frequency of breathing, tidal volume and minute ventilation", "setting": "[10]; 500 μmol/kg, i.v.", "value": 20, "unit": "min"},
      {"measurement": "total ventilatory responses recorded over the 30 min post-injection period (% baseline), comparison of efficacy", "setting": "[10]; 500 μmol/kg, i.v., FIG. 2", "value": "most efficacious of the test compounds"},
      {"measurement": "frequency of breathing, tidal volume and minute ventilation (response)", "setting": "[10]; 500 mol/kg, i.v.", "value": "robust increases"},
      {"measurement": "how sustained the ventilatory effect is, compared with D-CYSee and L-CYSee", "setting": "[10]; 500 mol/kg, i.v.", "value": "most sustained effect"},
      {"measurement": "dose-dependency of ventilatory responses", "setting": "[10]; FIG. 3", "value": "clearly dose-dependent"},
      {"measurement": "immediate effects on Freq, TV or MV", "setting": "[3]; rat, in vivo", "value": "minimal immediate effects"}
    ]},
    {"smiles": "CC(=O)N[C@@H](CS)C(=O)O", "note": "[NAC, N-acetylcysteine]", "values": [
      {"measurement": "increase in minute ventilation", "setting": "[11]", "value": "24±4", "unit": "%"}
    ]}
  ]
}
